Data taken from US7923204B2, “Forward mutation assay based on 5-fluorouracil resistance” (priority 2003, dated 2011).
Like-named read-outs stand apart in the source and are kept apart here. Marks after values point to notes of the source that are not given here.

Tests used:
FU100 [1] = tested on: FU100
Protocol: Briefly, in order to practice the disclosed mutation assay one-ml aliquots of exponentially growing bacteria are exposed to the test agent for two hours in the presence and absence of a metabolic activation system, such as a mammalian (i.e., rat, hamster or human) liver homogenate (S9-fraction or liver microsomal enzymes). The aliquots are then diluted, allowed to grow for 3 hours, and assessed for treatment-related toxicity/inhibition by optical density. The cultures are subsequently diluted a second time and grown overnight to permit full recovery from toxicity and to allow expression of the FU^R phenotype. Samples of the cultures are then plated in 384-well microtiter dishes in the presence of 2 μg/ml 5-FU and the pH-sensitive indicator bromcresol purple. Three days later positive wells containing FU^R colonies are detected by their yellow color and enumerated. Treated cultures are then compared to control plates to determine genotoxic activity.
For each mutation experiment, two frozen 1-ml aliquots of FU100 were quickly thawed in a 37° C. water bath, pelleted by centrifugation, washed to remove the DMSO, and suspended in 35 mL of MinE medium. The culture was shaken for approximately 1 hour at 37° C. until the optical density at 600 nm (OD600) reached the target density of 0.3. A 16-ml aliquot of culture was added to each of two 50-ml tubes containing 3.6 ml of a NADPH-generating system (5.6 mM glucose-6-phosphate, 4.5 mM NADP+, 5 mM sucrose, 110 mM Na2HPO4, 37 mM KCl, and 9 mM MgCl2) and either 0.4 ml rat liver S-9 or an equal volume of sodium phosphate buffer. Aliquots of these mixtures were distributed into three 12-well cluster dishes (one for exposure with S-9, one for exposure without S-9, one for controls with and without S-9), and exposed to test compounds as 1-ml aliquots for 2 hour as outlined in FIG. 1.
Following treatment, the 1-ml aliquots were transferred into 9 ml of warm MinE medium in a 50 ml tube and incubated at 37° C. on a rotary wheel for 3 hours. Next, 20 ml of medium was added to each culture tube and 0.25 ml aliquots were transferred to a 96-well plate for OD600 measurements to assess toxicity (OD Day 1). […] Bulk cultures were then incubated overnight in the dark at 30° C. to permit recovery from toxicity and to allow time for the test cells to express the FU^R phenotype.
The next day, OD600 was again assessed to adjust cell number plated on 5-FU plates (OD Day 2; 100 μl of the culture diluted with 150 μl MinE medium for OD600 measurements). For plating, a 35 μl aliquot of each culture was added to 31.4 mL of MinE medium with 2 μg/ml of 5-FU and 10 μg/ml of bromcresol purple. The mixture was then dispersed into a 384-well plate (75 μl/well) and placed at 37° C. for 3 days in a humidified incubator.
The data obtained for both survival (OD day 1), relative number of cells plated (OD day 2), and number of positive wells were imported into an Excel template.
Table 8 summarizes the criteria for positive result in 5-FU assay using the FU100 tester strain described and claimed herein. […] A positive compound was defined when two or more doses met the aforementioned criteria.

Salmonella = conditions: cited from earlier work
chromosome aberrations = conditions: cited from earlier work
[2] = tested on: sister chromatid exchange; conditions: cited from earlier work
mouse lymphoma = conditions: cited from earlier work
micronucleus = conditions: cited from earlier work
FU100 [3] = tested on: FU100; remark: listed apart in the source
TA100, TA1535 = tested on: TA100, TA1535
Excerpt: As stated above, the Ames Salmonella his+ plate incorporation assay evaluates genotoxic activity (mutagenicity) of chemical compounds on a set of genetically modified bacterial tester strains that are auxotrophic for the amino acid histidine. In practice, the Ames Assay simultaneously evaluates the genotoxic activity of a potential mutagen on several different target genes. The standard Ames Assay utilizes several different tester strains, each with a distinct mutation (e.g., transition, frameshift etc.) in one of the genes comprising the histidine (his) biosynthetic operon. The his operon encodes enzymes required for the biosynthesis of the amino acid histidine. For example, strain TA98 contains the hisD3052 allele which is reverted by a frameshift mutation, while strain TA1535 contains the hisG46 allele which is reverted by transition and transversion mutations. More specifically, the Ames Assay evaluates the ability of a chemical agent to increase the rate of reversion of auxotrophic strains of Salmonella to prototrophy.

[4] = in the presence of S9 activation (+), approximate, first dose with greater than 50% survival by optical density on Day 1
[5] = without S9 activation (−), approximate, first dose with greater than 50% survival by optical density on Day 1
[6] = NTP Results Report 12 Aug. 2002 or cited reference (footnotes f, g, i, j)
[7] = NTP Results Report 12 Aug. 2002
[8] = in the presence of S9 activation (+), FU100, 2 h exposure
[9] = without S9 activation (−), FU100, 2 h exposure
[10] = without S9 activation (−), lowest dose tested giving a positive response

| SMILES | response in the 5-FU Assay (in words) (FU100 [1]) | NTP Results: SA = Salmonella (Salmonella) | NTP Results: CA = chromosome aberrations (chromosome aberrations) | NTP Results: SC = sister chromatid exchange [2] | NTP Results: ML = mouse lymphoma (mouse lymphoma) | NTP Results: MN = micronucleus (micronucleus) | Results (5-FU assay) (FU100 [1]) | LD50 (FU100 [3]; [4]) | LD50 (FU100 [3]; [5]) | NTP Results: SA = Salmonella (Salmonella; [6]) | NTP Results: CA = chromosome aberrations (chromosome aberrations; [7]) | NTP Results: SC = sister chromatid exchange [2, 7] | NTP Results: MN = micronucleus (micronucleus; [7]) | Results (5-FU assay) (FU100 [1]; [8]) | Results (5-FU assay) (FU100 [1]; [9]) | further results |
| --- | --- | --- | --- | --- | --- | --- | --- | --- | --- | --- | --- | --- | --- | --- | --- | --- |
| Oc1cccc2cccnc12 [8-Hydroxyquinoline] | positive compounds in toxic concentrations | (SA+, CA+^w, SC+, ML+, MN−) | (SA+, CA+^w, SC+, ML+, MN−) | (SA+, CA+^w, SC+, ML+, MN−) | (SA+, CA+^w, SC+, ML+, MN−) | (SA+, CA+^w, SC+, ML+, MN−) |  |  |  |  |  |  |  |  |  |  |
| CCCCC(CC)COC(=O)c1ccccc1C(=O)OCC(CC)CCCC (stereo not shown) [Di (2-ethylhexyl) phthalate] | negative/non-toxic | (SA−, CA−, SC+−?, ML−, MN?) | (SA−, CA−, SC+−?, ML−, MN?) | (SA−, CA−, SC+−?, ML−, MN?) | (SA−, CA−, SC+−?, ML−, MN?) | (SA−, CA−, SC+−?, ML−, MN?) | Neg | >5000 µg/mL | >5000 µg/mL |  |  |  |  |  |  |  |
| CC(C)CON=O [Isobutyl Nitrite] | positive compounds in toxic concentrations |  |  |  |  |  | Pos |  |  | (SA+, CA+, SC+, MN+) | (SA+, CA+, SC+, MN+) | (SA+, CA+, SC+, MN+) | (SA+, CA+, SC+, MN+) |  |  |  |
| CC1CCC(C(C)C)C(O)C1 (stereo not shown) [Menthol] |  |  |  |  |  |  |  | >9 µg/mL | >16 µg/mL | (SA−, CA−, SC−, ML−, MN−) | (SA−, CA−, SC−, ML−, MN−) | (SA−, CA−, SC−, ML−, MN−) | (SA−, CA−, SC−, ML−, MN−) | Neg | Neg | NTP Results: ML = mouse lymphoma (mouse lymphoma; [7]): (SA−, CA−, SC−, ML−, MN−) |
| OO [Hydrogen Peroxide] | positive compounds in toxic concentrations | (SA+^w) |  |  |  |  | Pos |  |  |  |  |  |  |  |  | Lowest Positive Dose (FU100 [1]; Salmonella typhimurium): 3 µg/mL; Results (5-FU assay) (FU100 [1]; s9): Neg; response in the 5-FU Assay (in words) (FU100 [1]; text and figure legend (FIG. 6), with or without S9): easy to detect; response in the standard Ames assay (in words) (TA100, TA1535): weak or equivocal response |
| O=C1CN(/N=C/c2ccc([N+](=O)[O-])o2)C(=O)N1 [Nitrofurantoin] |  | (SA+, CA+, SC+, ML+, MN−) | (SA+, CA+, SC+, ML+, MN−) | (SA+, CA+, SC+, ML+, MN−) | (SA+, CA+, SC+, ML+, MN−) | (SA+, CA+, SC+, ML+, MN−) | Pos |  |  |  |  |  |  |  |  | Lowest Positive Dose (FU100 [1]; Salmonella typhimurium): 0.1 µg/mL; LD50 (FU100 [3]; Salmonella typhimurium): >1 µg/mL |
| COC(=O)[C@H]1[C@H]2C[C@@H]3c4[nH]c5cc(OC)ccc5c4CCN3C[C@H]2C[C@@H](OC(=O)c2cc(OC)c(OC)c(OC)c2)[C@@H]1OC [Reserpine] |  |  |  |  |  |  |  | >1500 µg/mL | >1500 µg/mL | − |  | − | − | Neg | Neg | NTP Results: ML = mouse lymphoma (mouse lymphoma; [7]): − |
| Nc1ccc([N+](=O)[O-])cc1O [2-Amino-5-nitrophenol] |  |  |  |  |  |  |  | >150 µg/mL | >300 µg/mL | (SA+, CA+, SC+, ML+) | (SA+, CA+, SC+, ML+) | (SA+, CA+, SC+, ML+) |  | Neg | Pos | Lowest Positive Dose (FU100 [1]; [10]): 2.8 µg/mL; NTP Results: ML = mouse lymphoma (mouse lymphoma; [7]): (SA+, CA+, SC+, ML+) |
| COc1ccc(O)c(C(C)(C)C)c1 [Butylated Hydroxyanisole] |  |  |  |  |  |  |  | >30 µg/mL | >30 µg/mL | (SA−, MN−) |  |  | (SA−, MN−) | Neg | Neg |  |
| [N-]=[N+]=[N-] [Sodium Azide] |  |  |  |  |  |  |  | >30 µg/mL | >50 µg/mL | + | − | + |  | Pos^w | Pos^w | concentration producing a positive response in the 5-FU Assay (FU100 [1]; S9 condition not stated): greater than 90 μg/ml; Lowest Positive Dose (FU100 [1]; in the presence of S9 activation (+), lowest dose tested giving a positive response): 90 µg/mL; Lowest Positive Dose (FU100 [1]; [10]): 160 µg/mL; response in the standard Ames assay (in words) (TA100, TA1535; TA100 or TA1535, plate incorporation or liquid suspension): extremely sensitive |
| Nc1ncn([C@@H]2O[C@H](CO)[C@@H](O)[C@H]2O)c(=O)n1 [5-Azacytidine] |  | (SA+, CA+, SC+, ML+, MN+) | (SA+, CA+, SC+, ML+, MN+) | (SA+, CA+, SC+, ML+, MN+) | (SA+, CA+, SC+, ML+, MN+) | (SA+, CA+, SC+, ML+, MN+) | Pos | >5 µg/mL | >3 µg/mL |  |  |  |  |  |  |  |
| C=CCc1ccc2c(c1)OCO2 [Safrole] |  | (SA−, CA−, SC+ ML+) | (SA−, CA−, SC+ ML+) | (SA−, CA−, SC+ ML+) | (SA−, CA−, SC+ ML+) |  | Neg | >50 µg/mL | >60 µg/mL |  |  |  |  |  |  |  |
